Here are results for 26 compounds from patent US20250320227A1, “MACROCYCLIC OREXIN RECEPTOR AGONISTS AND USES THEREOF” (Jazz Pharmaceuticals Ireland Limited, priority 2022, published 2025).

This assay concerns the target T1, human recombinant OX2 (hOX2) receptors expressed in CHO cells (Homo sapiens, UniProt O43614).
T1 construct: host or cells: CHO cells (hOX2-CHO)
T1 sequence (O43614 1-444): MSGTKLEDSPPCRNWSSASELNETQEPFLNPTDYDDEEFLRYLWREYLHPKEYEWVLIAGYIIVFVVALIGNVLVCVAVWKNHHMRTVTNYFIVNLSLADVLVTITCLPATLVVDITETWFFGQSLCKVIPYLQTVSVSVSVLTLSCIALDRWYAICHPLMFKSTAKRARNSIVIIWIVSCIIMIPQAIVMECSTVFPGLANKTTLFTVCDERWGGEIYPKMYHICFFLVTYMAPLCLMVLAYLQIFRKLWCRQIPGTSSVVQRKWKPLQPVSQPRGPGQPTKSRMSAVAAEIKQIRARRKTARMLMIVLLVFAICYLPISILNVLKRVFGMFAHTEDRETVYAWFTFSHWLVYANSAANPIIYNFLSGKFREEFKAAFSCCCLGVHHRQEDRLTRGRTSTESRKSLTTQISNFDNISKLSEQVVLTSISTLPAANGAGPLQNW
The assay is described as follows: IP-1 accumulation assay (IP-One HTRF) in hOX2-CHO cells. It is filed as cell-based. To be noted: 60 min incubation at 37° C., mean of at least two independent experiments, read-out: EC50_OX2R Category. How it is done: The accumulation of Inositol-1 Monophosphate (IP-1) was measured using IP-One HTRF® Terbium cryptate based assay (Cisbio) in human recombinant OX1 (hOX1) and at OX2 (hOX2) receptors expressed in CHO cells (DiscoverX) according to the manufacturer's instructions for cells tested in suspension.
hOX1-CHO and hOX2-CHO cells were seeded into white 384-well plates at a density of 20,000 cells/well in Hank's Balanced Salt Solution (HBSS) containing 20 mM HEPES pH 7.4, 50 mM, LiCl and 0.1% and Bovine Serum Albumin (BSA).
Compounds of disclosure were tested in an 11 points concentration response curve (CRC) serially diluted in neat DMSO at 200 fold concentrations and added by Echo acoustic liquid handling (Labcyte) to the cells (0.5% DMSO final in the assay). After 60 min of incubation at 37° C. detection reagents, IP1-d2 tracer and anti-IP1-cryptate were diluted in lysis buffer according to the manufacturer's descriptions and added to the cells.
Following 60 min incubation at room temperature, time-resolved fluorescence (HTRF) was measured at 615 nm and 665 nm by Envision Multilabel reader (Perkin Elmer) and the HTRF ratio (A665/A615×10^4) was calculated.
The IP-1 accumulation response was expressed as percentage of the maximal OX-A response.
Curve fitting and EC50 estimations were carried out using a four-parameter logistic model using XLfit Software. Mean data of EC50 are calculated from at least two independent experiments performed in duplicates
With `C[C@@H]1C[C@@]2(COCC(=O)N2)[C@@H]2CO[C@H]3CC[C@H](CC3)c3cccc(F)c3OCC(=O)N12` (single isomer, unassigned) [Example 15a], the EC50 was < 0.1 µM.

In the case of `O=C1CCC2(CCCN3C(=O)COc4ccccc4[C@H]4CC[C@H](CC4)OCC32)N1` (mixture of isomers) [Example 69, Rel-(1′s,2R,16′R,19′s)-8′,18′-dioxa-11′-azaspiro[pyrrolidine-2,15′-tetracyclo-[17.2.2.0^2,70.0^11,16]tricosane]-2′(7′),3′,5′-triene-5,10′-dione], the EC50 is 0.1 to 1 µM.

For the compound `O=C1COCC2(CCCN3C(=O)CCCOc4ccccc4-c4cccc(c4F)CC32)N1` (racemic) [Example 61, Rel-(3S,18′S)-24′-fluoro-8′-oxa-13′-azaspiro[morpholine-3,17′-tetracyclo[18.3.1.0^2,70.0^13,18]tetracosane]-1′(24′),2′(7′), 3′,5′,20′,22′-hexaene-5,12′-dione], the EC50 lay within 1 to 10 µM.

With `O=C1COC[C@]2(CCCN3C(=O)CCCCOc4cccc(n4)[C@H]4CC[C@H](CC4)OC[C@@H]32)N1` (single isomer, unassigned) [Example 76a], the EC50 is > 10 µM.

As to `O=C1COCC2(CCCN3C(=O)OCCOc4cccc(c4)[C@H]4CC[C@H](CC4)OCC32)N1` (mixture of isomers) [Example 53, Rel-(1′s,3S,17′R,20's)-7′,10′,19′-trioxa-12′-azaspiro[morpholine-3,16′-tetracyclo[18.2.2.1^2,60.0^12,17]pentacosane]-2′(25′),3′,5′-triene-5,11′-dione], the EC50 was < 0.1 µM.

`O=C1COCC2(CCN3C(=O)CCOc4cccc(F)c4[C@H]4CC[C@H](CC4)OCC32)N1` (mixture of isomers) [Example 10, Rel-(1′s,3S,16′R,19′s)-3′-fluoro-8′,18′-dioxa-12′-azaspiro[morpholine-3,15′-tetracyclo[17.2.2.0^2,70.0^12,16]tricosane]-2′(7′),3′,5′-triene-5,11′-dione]: the EC50 was < 0.1 µM.

As to `O=C1COC[C@]2(CCCN3C(=O)COc4c(F)ccc(F)c4[C@H]4CC[C@H](CC4)OC[C@@H]32)N1` (single isomer, unassigned) [Example 44b], the EC50 is > 10 µM.

With `O=C1COCC2(CCCN3C(=O)COc4ccc(F)cc4[C@H]4CC[C@H](CC4)OCC32)N1` (stereo partly drawn) [Example 41, Rel-(1′s,3S,16′R,19′s)-4′-fluoro-8′,18′-dioxa-11′-azaspiro[morpholine-3,15′-tetracyclo[17.2.2. 0^2,^7.0^11,^16]tricosane]-2′(7′),3′,5′-triene-5,10′-dione], the EC50 was < 0.1 µM.

`C[C@@H]1C[C@@]2(COCC(=O)N2)[C@@H]2CO[C@H]3CC[C@H](CC3)c3ccccc3OCC(=O)N12` [Example 12a, (1′s,3S,12′R,15′R,18′s)-12′-methyl-8′,17′-dioxa-11′-azaspiro[morpholine-3,14′-tetracyclo[16.2.2.0^2,70.0^11,15]docosane]-2′(7′),3′,5′-triene-5,10′-dione]: the EC50 was < 0.1 µM.

Take `O=C1COC[C@]2(CCCN3C(=O)CCOc4ccc(F)cc4[C@H]4CC[C@H](CC4)OC[C@@H]32)N1` (single isomer, unassigned) [Example 49b]: the EC50 is < 0.1 µM.

Consider `O=C1CCOc2ccccc2[C@H]2CC[C@H](CC2)OCC2N1CCC21COCCN1` (mixture of isomers) [Example 9, Rel-(1′s,3S,16′R,19′s)-8′,18′-dioxa-12′-azaspiro[morpholine-3,15′-tetracyclo[17.2.2.0^2,70.0^12,16]tricosane]-2′,4′,6′-trien-11′-one], for which the EC50 is > 10 µM.

Consider `C[C@@H]1C[C@@]2(COCC(=O)N2)[C@@H]2CO[C@H]3CC[C@H](CC3)c3cc(F)cc(F)c3OCCC(=O)N12` [Example 25a, (1′s,3S,13′R,16′R, 19′s)-4′,6′-difluoro-13′-methyl-8′,18′-dioxa-12′-azaspiro[morpholine-3,15′-tetracyclo[17.2.2. 0^2,^7.0^12,^16]tricosane]-2′,4′,6′-triene-5,11′-dione], for which the EC50 is < 0.1 µM.

For `CC1Oc2ccccc2[C@H]2CC[C@H](CC2)OC[C@@H]2N(CCC[C@@]23COCC(=O)N3)C1=O` (single isomer, unassigned) [Example 35a], the EC50 is < 0.1 µM.

Regarding `O=C1COC[C@@]2(CCCN3C(=O)C4(CC4)COc4cccc(F)c4[C@H]4CC[C@H](CC4)OC[C@H]32)N1` (single isomer, unassigned) [Example 72b, (1′s,16′S,17′R,20′s)-3′-fluorodispiro[cyclopropane-1,10′-[8,19]dioxa-[12]azatetracyclo [18.2.2.0^2,^7.0^12,^17]tetracosane-16′,3″- morpholine]-2′,4′,6′-triene-5″,11′-dione], the EC50 was < 0.1 µM.

Consider `C[C@@H]1CC2(COCC(=O)N2)C2Cc3cccc(c3F)-c3ccccc3OCCN(C)C(=O)N21` (mixture of isomers) [Example 30, (14′R)-23′-fluoro-11′,14′-dimethyl-8′-oxa-11′,13′-diazaspiro[morpholine-3,16′-tetracyclo[17.3.1.0^2,70.0^13,17]tricosane]-1′(23′),2′(7′),3′,5′,19′,21′-hexaene-5,12′-dione], for which the EC50 lay in the range of 1 to 10 µM.

For the compound `O=C1COC[C@@]2(CCCN3C(=O)COc4cccc(F)c4[C@H]4CC[C@H](CC4)OC[C@H]32)N1` (single isomer, unassigned) [Example 40a], the EC50 is < 0.1 µM.

Regarding `C[C@@H]1C[C@]2(COCC(=O)N2)[C@H]2CO[C@H]3CC[C@H](CC3)c3cc(F)ccc3OCC(=O)N12` (single isomer, unassigned) [Example 18b], the EC50 was > 10 µM.

With `C[C@@H]1C[C@@]2(COCC(=O)N2)[C@@H]2CO[C@H]3CC[C@H](CC3)c3cccc(Cl)c3OCC(=O)N12` (single isomer, unassigned) [Example 20a], the EC50 was 1 to 10 µM.

For the compound `O=C1COC[C@@]2(CCCN3C(=O)CCOc4c(F)cccc4[C@H]4CC[C@H](CC4)OC[C@H]32)N1` (single isomer, unassigned) [Example 48a], the EC50 is < 0.1 µM.

`CC1Oc2ccccc2[C@H]2CC[C@H](CC2)OCC2N(CCCC23COCC(=O)N3)C1=O` (stereo partly drawn) [Example 35, Rel-(1′s,3S,16′R,19′s)-9′-methyl-8′,18′-dioxa-11′-azaspiro[morpholine-3, 15′-tetracyclo[17.2.2.0^2,70.0^11,16]tricosane]-2′(7′),3′,5′-triene-5,10′-dione]: the EC50 is < 0.1 µM.

In the case of `Cc1cccc2c1[C@H]1CC[C@H](CC1)OCC1N(CCCC13COCC(=O)N3)C(=O)CO2` (stereo partly drawn) [Example 47, Rel-(1′s,3S,16′R,19′s)-3′-methyl-8′,18′-dioxa-11′-azaspiro[morpholine-3,15′-tetracyclo[17.2.2. 0^2,^7.0^11,^16]tricosane]-2′(7′),3′,5′-triene-5,10′-dione], the EC50 is < 0.1 µM.

Turning to `O=C1NC2(CCCN3C(=O)COc4ccccc4[C@H]4CC[C@H](CC4)OCC32)CCO1` (mixture of isomers) [Example 57, Rel-(1′s,4R,16′R,19′s)-8′,18′-dioxa-11′-azaspiro[1,3-oxazinane-4,15′-tetracyclo[17.2.2.0^2,70.0^11,16]tricosane]-2′(7′),3′,5′-triene-2,10′-dione], the EC50 is < 0.1 µM.

Regarding `O=C1COC[C@]2(CCCN3C(=O)COc4ncccc4[C@H]4CC[C@H](CC4)OC[C@@H]32)N1` [Example 45b, (1′s,3R,16′S,19′s)-8′,18′-dioxa-6′,11′-diazaspiro [morpholine-3,15′-tetracyclo[17.2.2. 0^2,^7.0^11,^16]tricosane]-2′(7′),3′,5′-triene-5,10′-dione], the EC50 is > 10 µM.

`C[C@@H]1C[C@]2(COCC(=O)N2)[C@H]2CO[C@H]3CC[C@H](CC3)c3cc(Cl)ccc3OCC(=O)N12` (single isomer, unassigned) [Example 21b]: the EC50 is > 10 µM.

Consider `O=C1COCC2(CCN3C(=O)CCOc4c(F)cc(F)cc4[C@H]4CC[C@H](CC4)OCC32)N1` (mixture of isomers) [Example 11, Rel-(1′s,3S,16′R,19′s)-4′,6′-difluoro-8′,18′-dioxa-12′-azaspiro[morpholine-3,15′-tetracyclo[17.2.2.0^2,70.0^12,16]tricosane]-2′(7′),3′,5′-triene-5,11′-dione], for which the EC50 fell in the range of 0.1 to 1 µM.

For `O=C1COCC2(CCN3C(=O)CCCOc4ccccc4[C@H]4CC[C@H](CC4)OCC32)N1` (mixture of isomers) [Example 2, rel-(1′s,3S, 17′R,20′s)-8′,19′-dioxa-13′-azaspiro[morpholine-3, 16′-tetracyclo [18.2.2.0^2,70.0^13,17]tetracosane]-2′(7′),3′,5′-triene-5,12′-dione], the EC50 fell in the range of 1 to 10 µM.
